Target: T1, human GPR119 (Homo sapiens, UniProt Q8TDV5)
T1 sequence (Q8TDV5 1-308 limits assumed): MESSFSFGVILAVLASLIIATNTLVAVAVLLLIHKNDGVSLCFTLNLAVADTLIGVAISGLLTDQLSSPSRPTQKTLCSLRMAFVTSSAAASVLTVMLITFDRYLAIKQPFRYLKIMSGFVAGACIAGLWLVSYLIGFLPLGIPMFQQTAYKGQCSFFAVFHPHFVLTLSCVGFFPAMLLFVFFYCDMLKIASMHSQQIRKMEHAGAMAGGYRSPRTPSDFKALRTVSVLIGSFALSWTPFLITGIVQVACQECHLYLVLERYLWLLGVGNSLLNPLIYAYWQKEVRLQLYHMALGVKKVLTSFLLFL
Experiment: Measurement of GPR119 signaling (cAMP assay) in cells stably transfected with human GPR119
Assay type: cell-based
Conditions: cAMP stimulation; read-out: GPR119 HumC EC50
Method: Measurement of GPR119 Signaling (Cyclic AMP (cAMP) Assay)
The adenylate cyclase assay was constructed following the LANCE™ cAMP Kit (Perkin Elmer, AD0264) instructions.
The reaction was stopped by incubating with the supplied detection buffer containing the europium chelate of the Eu-SA/Biotin-cAMP tracer for 3 hours. The assay was performed in duplicate in a 384 well plate for duplicate plates and fluorescence was measured at 665 nm. Basal activity was determined using a DMSO control and maximum response was defined as cAMP stimulation produced by an internal agonist control. Standard cAMP concentrations were assayed concurrently for conversion of fluorescence signal to cAMP level. The data was analyzed using 4-parameter curve fit in Microsoft Excel.
Measurement of GPR119 Signaling (cAMP Homogenous Time Resolved Fluorescence (HTRF) Assay)
Chinese hamster ovary (CHO) cell lines stably transfected with the permissive guanine nucleotide binding protein alpha 15 (Gα15) and murine GPR119 were maintained in DMEM media containing FBS, penicillin-streptomycin, puromycin, and G418 (geneticin). […] Agonist activation of the GPR119 receptor was measured in receptor transfected cells described above, treated with compounds of this invention, using a commercial homogenous time resolved fluorescence (HTRF) kit for measurement of cAMP (CisBio, Bedford, Mass.). The assay was performed in 96-well half-volume plates (murine) or 384-well plates (human) following the manufacturers instructions. Briefly, suspended cells were incubated with a dose titration of test compound at RT for 60 min, lysed, and incubated with HTRF reagents for an additional 60 min. The plate was read using an Envision multilabel reader (Perkin Elmer) adjusted to read time resolved fluorescence and the cAMP concentrations were extrapolated from a cAMP calibration curve. […] The concentration of test compound required to stimulate a half-maximal response (EC50), and efficacy as compared to an internal agonist control, was determined from a sigmoidal 4-parameter curve fit of the resulting plot of normalized activity versus compound concentration.

| EC50 | SMILES |
| --- | --- |
| 1.1 nM | Cc1cc(OCC[C@@H]2C[C@@H]2C2CCN(c3nc(C(C)C)no3)CC2)ccc1CC(=O)N1CCC1 [Example 102] |
| 0.58 nM | CC(C)c1noc(N2CCC([C@H]3C[C@H]3CCOc3ccc(CC(=O)N4CCC4)c(Cl)c3)CC2)n1 [Example 103] |
| 2.6 nM | COCc1noc(N2CCC([C@H]3C[C@H]3CCOc3ccc(CC(=O)N4CCC4)c(Cl)c3)CC2)n1 [Example 104] |
| 2 nM | CC(C)c1noc(N2CCC([C@H]3C[C@H]3CCOc3ccc(CC(=O)N4CCC4)c(C#N)c3)CC2)n1 [Example 105] |
| 3.4 nM | Cc1cc(OCC[C@@H]2C[C@@H]2C2CCN(c3nc(C(C)C)no3)CC2)ccc1CC(=O)N(C)C [Example 106] |
| 5.2 nM | COCc1noc(N2CCC([C@H]3C[C@H]3CCOc3ccc(CC(=O)N(C)C)c(C)c3)CC2)n1 [Example 107] |
| 0.24 nM | CC(C)c1noc(N2CCC([C@H]3C[C@H]3CCOc3cc(F)c(CC(=O)N4CCC4)c(F)c3)CC2)n1 [Example 109] |
| 0.12 nM | CC(C)c1noc(N2CCC([C@H]3C[C@H]3CCOc3cc(F)c(CC(=O)N4CC(F)C4)c(F)c3)CC2)n1 [Example 110] |
| 0.26 nM | CC(C)c1noc(N2CCC([C@H]3C[C@H]3CCOc3cc(F)c(CC(=O)N(C)C)c(F)c3)CC2)n1 [Example 111] |
| 2.4 nM | CC(C)c1noc(N2CCC([C@H]3C[C@H]3CCOc3cc(F)c(CC(=O)N4CC(C)(O)C4)c(F)c3)CC2)n1 [Example 112] |
| 0.33 nM | COC1CN(C(=O)Cc2c(F)cc(OCC[C@@H]3C[C@@H]3C3CCN(c4nc(C(C)C)no4)CC3)cc2F)C1 [Example 113] |
| 0.19 nM | CC(C)c1noc(N2CCC([C@H]3C[C@H]3CCOc3cc(F)c(CC(=O)N4CCOCC4)c(F)c3)CC2)n1 [Example 114] |

Same assay, conditions: stated in the example text without 'GPR119'; read-out: Human EC50

| EC50 | SMILES |
| --- | --- |
| 5.3 nM | CC(C)c1noc(N2CCC([C@H]3C[C@H]3CCOc3ccc(CC(=O)N4CCC4)cc3F)CC2)n1 [Example 101, 4-((1R,2S)-2-{2-[4-(2-azetidin-1-yl-2-oxoethyl)-2-fluorophenoxy]ethyl}cyclopropyl)-1-(3-isopropyl-1,2,4-oxadiazol-5-yl)piperidine] |

Same assay, conditions: stated in the example text; cAMP stimulation, human GPR119; read-out: GPR119 Human EC50

| EC50 | SMILES |
| --- | --- |
| 11.8 nM | CC(C)c1noc(N2CCC([C@H]3C[C@H]3CCOc3ccc(-n4cnnn4)cc3)CC2)n1 [Example 98, 5-(4-((1R,2S)-2-(2-(4-(1H-tetrazol-1-yl)phenoxy)ethyl)cyclopropyl)piperidin-1-yl)-3-isopropyl-1,2,4-oxadiazole] |
| 1.8 nM | CC(C)c1noc(N2CCC([C@H]3C[C@H]3CCOc3ccc(CC(=O)N4CCC4)cc3)CC2)n1 [Example 99, 4-[(1R,2S)-2-{2-[4-(2-azetidin-1-yl-2-oxoethyl)phenoxy]ethyl}cyclopropyl]-1-[3-(1-methylethyl)-1,2,4-oxadiazol-5-yl]piperidine] |
| 0.4 nM | CC(C)c1noc(N2CCC([C@H]3C[C@H]3CCOc3ccc(CC(=O)N4CC(F)C4)c(F)c3)CC2)n1 [Example 100, 4-[(1R,2S)-2-(2-{3-fluoro-4-[2-(3-fluoroazetidin-1-yl)-2-oxoethyl]phenoxy}ethyl)cyclopropyl]-1-(3-isopropyl-1,2,4-oxadiazol-5-yl)piperidine] |
| 0.96 nM | CC(C)c1noc(N2CCC([C@H]3C[C@H]3CCOc3cc(F)c(CC(=O)N4CC(O)C4)c(F)c3)CC2)n1 [Example 108, 1-[(2,6-difluoro-4-{2-[(1S,2R)-2-{1-[3-(1-methylethyl)-1,2,4-oxadiazol-5-yl]piperidin-4-yl}cyclopropyl]ethoxy}phenyl)acetyl]azetidin-3-ol] |
| 5.8 nM | COCc1noc(N2CCC([C@H]3C[C@H]3CCOc3ccc(CC(=O)N4CCC4)c(F)c3)CC2)n1 [Example 115, 4-[(1R,2S)-2-{2-[4-(2-azetidin-1-yl-2-oxoethyl)-3-fluorophenoxy]ethyl}cyclopropyl]-1-[3-(methoxymethyl)-1,2,4-oxadiazol-5-yl]piperidine] |
| 1.4 nM | COCc1noc(N2CCC([C@H]3C[C@H]3CCOc3cc(F)c(CC(=O)N4CC(F)C4)c(F)c3)CC2)n1 [Example 116, 4-[(1R,2S)-2-(2-{3,5-difluoro-4-[2-(3-fluoroazetidin-1-yl)-2-oxoethyl]phenoxy}ethyl)cyclopropyl]-1-[3-(methoxymethyl)-1,2,4-oxadiazol-5-yl]piperidine] |

Same assay, conditions: table column; cAMP stimulation, human GPR119; read-out: GPR119 Human EC50

| EC50 | SMILES |
| --- | --- |
| 0.6 nM | CC(C)c1noc(N2CCC([C@H]3C[C@H]3CCOc3ccc(C(=O)C4CC4)c(F)c3)CC2)n1 [Example 117] |
| 0.4 nM | Cc1nc(C#N)cc(OCC[C@@H]2C[C@@H]2C2CCN(c3nc(C(C)C)no3)CC2)n1 [Example 118] |
| 1.3 nM | CC(C)c1noc(N2CCC([C@H]3C[C@H]3CCOc3ccc(S(C)(=O)=O)c(F)c3)CC2)n1 [Example 119] |
| 0.1 nM | CC(C)c1noc(N2CCC([C@H]3C[C@H]3CCOc3cc(F)c(C(=O)C4CC4)c(F)c3)CC2)n1 [Example 120] |
| 0.1 nM | CCCC(=O)c1c(F)cc(OCC[C@@H]2C[C@@H]2C2CCN(c3nc(C(C)C)no3)CC2)cc1F [Example 121] |
| 10 nM | CC(C)c1noc(N2CCC([C@H]3C[C@H]3CCOc3cc(F)c(C(=O)NC(C)(C)CO)c(F)c3)CC2)n1 [Example 122] |
| 3.8 nM | CC(C)c1noc(N2CCC([C@H]3C[C@H]3CCOc3ccc(S(C)(=O)=O)cc3F)CC2)n1 [Example 123] |
| 2.6 nM | Cc1cc(OCC[C@@H]2C[C@@H]2C2CCN(c3nc(C(C)C)no3)CC2)ccc1-n1cnnn1 [Example 124] |
| 11 nM | COc1cc(OCC[C@@H]2C[C@@H]2C2CCN(c3nc(C(C)C)no3)CC2)ccc1-n1cnnn1 [Example 125] |
| 1.4 nM | CC(C)c1noc(N2CCC([C@H]3C[C@H]3CCOc3ccc(CC(=O)N4CCCC4)cc3)CC2)n1 [Example 126] |
| 1.1 nM | CC(C)c1noc(N2CCC([C@H]3C[C@H]3CCOc3ccc(CC(=O)N4C[C@@H](F)[C@H](F)C4)cc3)CC2)n1 [Example 127] |
| 1.8 nM | CC(C)c1noc(N2CCC([C@H]3C[C@H]3CCOc3ccc(CC(=O)N4CCC4)cc3)CC2)n1 [Example 128] |
| 1.5 nM | CC(C)c1noc(N2CCC([C@H]3C[C@H]3CCOc3ccc(CC(=O)N4CC(F)C4)cc3)CC2)n1 [Example 129] |
| 10.6 nM | CC(C)c1noc(N2CCC([C@H]3C[C@H]3CCOc3ccc(S(C)(=O)=O)nc3)CC2)n1 [Example 130] |
| 2.7 nM | CC(C)c1noc(N2CCC([C@H]3C[C@H]3CCOc3ccc(CC(=O)N4CC(F)(F)C4)cc3)CC2)n1 [Example 132] |
| 6 nM | CC(C)c1noc(N2CCC([C@H]3C[C@H]3CCOc3ccc(CC(=O)N4CCOCC4)cc3)CC2)n1 [Example 133] |
| 5.3 nM | CC(C)c1noc(N2CCC([C@H]3C[C@H]3CCOc3ccc(CC(=O)N4CC[C@@H](F)C4)cc3)CC2)n1 [Example 134] |
| 8.5 nM | COC1CN(C(=O)Cc2ccc(OCC[C@@H]3C[C@@H]3C3CCN(c4nc(C(C)C)no4)CC3)cc2)C1 [Example 135] |
| 3.9 nM | CCN(CC)C(=O)Cc1ccc(OCC[C@@H]2C[C@@H]2C2CCN(c3nc(C(C)C)no3)CC2)cc1 [Example 136] |

From US8957062B2, “Substituted cyclopropyl compounds, compositions containing such compounds and methods of treatment” (Merck Sharp & Dohme Corp., priority 2011, dated 2015)
